{"source": "ChEMBL document CHEMBL1123315", "about": "“Total chemical synthesis and antitumor evaluation of the 9-aza analogue of N-(trifluoroacetyl)-4-demethoxydaunomycin” (1986)", "key": {"[1]": {"tested_on": "Mus musculus", "assay": "Compound was tested intraperitoneally against P388 acute lymphocytic leukemia in mice at a dose 100,50,25,12.5,6.25,3.72,1.56 mg/kg", "format": "functional"}, "[2]": {"tested_on": "Mus musculus", "assay": "Compound was tested intraperitoneally against P388 acute lymphocytic leukemia in mice; NA means inactive", "format": "functional, organism-based"}, "[3]": {"tested_on": "Mus musculus", "assay": "Compound was tested intraperitoneally against P388 acute lymphocytic leukemia in mice at a dose 0.75 mg/kg", "format": "functional", "conditions": "route intraperitoneal"}}, "note": "Activity calls are given as the source filed them. The rule behind the calls is not given here."}
{"compound": "CC(=O)N1Cc2c(O)c3c(c(O)c2[C@H](OC2C[C@H](NC(=O)C(F)(F)F)[C@H](O)[C@H](C)O2)C1)C(=O)c1ccccc1C3=O", "note": "(stereo not given in full)", "values": [{"measurement": "T/C", "setting": "[1]", "value": 105}]}
{"compound": "COc1ccc(OC)c(CNCC(OC)OC)c1", "values": [{"measurement": "T/C", "setting": "[2]", "value": "inactive"}]}
{"compound": "COc1ccc(OC)c2c1CN(C(C)=O)CC2O", "note": "(stereo not given)", "values": [{"measurement": "T/C", "setting": "[2]", "value": "inactive"}]}
{"compound": "CC(=O)[C@]1(O)Cc2c(O)c3c(c(O)c2[C@@H](OC2CC(N)C(O)C(C)O2)C1)C(=O)c1ccccc1C3=O", "note": "(stereo not given in full)", "values": [{"measurement": "T/C", "setting": "[3]", "value": 160}]}
{"compound": "CC(=O)N1Cc2c(O)c3c(c(O)c2[C@@H](OC2C[C@H](NC(=O)C(F)(F)F)[C@H](O)[C@H](C)O2)C1)C(=O)c1ccccc1C3=O", "note": "(stereo not given in full)", "values": [{"measurement": "T/C", "setting": "[1]", "value": 105}]}
